# Literature values as cited in PMC7830118, “Synthesis and Biological Evaluation of ^99mTc(I) Tricarbonyl Complexes Dual-Targeted at Tumoral Mitochondria” (Molecules, 2021).
# System: mitochondria fraction isolated from rat myocardium
# Method: The ^99mTc-BBN complex accumulates to a low extent (0.19 to 0.24%) in mitochondria when compared with the TPP-containing complexes. […] The highest mitochondrial uptake (0.84 ± 0.06%) was found for the dual-targeted complex, ^99mTc-TPP-BBN, after 2 h of incubation. The measured uptakes are relative values that were obtained in the same manner and, therefore, reflect the mitotropic properties of each complex. However, it is worthwhile to mention that in these ...
compound,measurement,setting,value
[99Tc].[C-]#[N+]CC(C)(C)OC.[C-]#[N+]CC(C)(C)OC.[C-]#[N+]CC(C)(C)OC.[C-]#[N+]CC(C)(C)OC.[C-]#[N+]CC(C)(C)OC.[C-]#[N+]CC(C)(C)OC [^99mTc-MIBI],Mitochondrial uptake after correction for mitochondria in other cellular fractions,correction with CCCP and malate dehydrogenase activity,68%
same,"Measured mitochondrial uptake (accumulation in the mitochondria fraction), uncorrected",mitochondria fraction isolated from rat myocardium,2.38%
